The record followed here is publication PMC7400623, “Effect of lysine side chain length on histone lysine acetyltransferase catalysis” (Scientific Reports, 2020).

Assay [1] has as its target T1, MOF catalytic domain (Homo sapiens, UniProt Q9H7Z6).
T1 construct: Human MOF catalytic domain (residues 125–458 in pET19b); His-tag; made in house; host or cells: E. coli BL21(DE3)
T1 sequence (Q9H7Z6 125-458): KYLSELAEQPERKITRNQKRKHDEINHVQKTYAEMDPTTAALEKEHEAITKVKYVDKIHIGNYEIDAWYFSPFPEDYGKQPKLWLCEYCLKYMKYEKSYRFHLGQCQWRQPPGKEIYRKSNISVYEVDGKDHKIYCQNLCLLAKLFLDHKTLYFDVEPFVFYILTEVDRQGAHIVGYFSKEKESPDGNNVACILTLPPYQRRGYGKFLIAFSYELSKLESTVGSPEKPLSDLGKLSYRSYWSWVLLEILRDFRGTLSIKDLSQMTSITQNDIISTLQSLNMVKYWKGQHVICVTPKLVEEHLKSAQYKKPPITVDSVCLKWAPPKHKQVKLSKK
Kind of assay: MALDI-TOF MS kinetics assay, MOF. In kind it is biochemical. Conditions: for kcat^app / Km: MOF catalytic domain 570 nM (2 µM for unnatural analogs), peptide 1,050–0 µM, pH 7.4, 37 °C, MALDI-TOF MS, duplicates, value ± SD, SD; for kcat^app: AcCoA 100 µM (saturating), 50 mM HEPES, 0.1 mM EDTA, 0.01% TRITON-X; for Km: AcCoA 100 µM, read-out: Km^app; for kcat^app/Km^app: same kinetics conditions. The source says: Kinetic analysis of bi-substrate enzymes, such as KATs, is reckoned to be challenging and dependent on many factors. Firstly, given the nature of these enzymes, the binding of one of the two substrates directly influences the binding of the other (with a direct effect on the Michaelis–Menten parameter Km). […] Therefore, to obtain data that would allow us to directly compare the catalytic properties of the selected KATs towards our selection of histone peptides bearing lysine analogs with longer side chains, two strategies to standardize our kinetic evaluation were taken: i) all the experiments were carried out with the same saturating concentrations of AcCoA and ii) only KATs catalytic domains were employed in the study. […] In contrast, kcat values decreased substantially with an increase of the side chain length, both in the K14 and K9 peptide series, and for both PCAF and GCN5 (Table 1).
Histone peptides kinetics evaluation was carried out with a MALDI-TOF MS assay under steady-state conditions[57],[58]. Histone peptides (1,050–0 µM) were incubated with AcCoA (100 µM) and the reactions were started by the addition of the enzyme (MOF 570 nM, PCAF and GCN5 50 nM) in a final volume of 20 µL in kinetic buffer (50 mM HEPES, 0.1 mM EDTA, 0.01% TRITON-X, pH = 7.4). For histone peptides bearing unnatural lysine analogs, higher concentration of enzymes was used (MOF, PCAF and GCN5 2 µM). […] AcCoA stock solutions in milli-Q water were calibrated with a NanoDrop 2000 spectrophotometer (Thermo Scientific, Waltham, MA, USA), employing the characteristic molar extinction coefficient ε260nm = 16,400 M^−1 cm^−1. Reactions were incubated at 37 °C, shaken at 750 rpm and quenched with TFA 10% in milli-Q water at different time points, within linear production of acetylated peptides extrapolated from time-course plots. All reactions were aliquoted and mixed 1:2 with a solution of α-cyano-4-hydroxycinnamic acid (CHCCA) in 1:1 MQ and ACN (0.1% TFA) and loaded onto MTP 384 polished steel target to be analyzed by UltrafleXtreme-II tandem mass spectrometer (Bruker). The amount of acetylated peptide was calculated by integration of the product peak area and divided it by the amount of unacetylated peptide, taking in account all the ionic species, at any concentration points using the FlexAnalysis software. Kinetic values were extrapolated by fitting V0 values (µM of produced peptide per minutes) and histone peptide concentrations to the Michaelis–Menten equation using the GraphPad Prism 5 software. Kinetic experiments were carried out in duplicates and final values are reported as value ± SD.

Assay [2] has as its target T2, MOF (KAT8) (Homo sapiens, UniProt Q9H7Z6).
T2 construct: Human MOF catalytic domain (residues 125–458 in pET19b); His-tag; made in house; host or cells: E. coli BL21(DE3)
T2 sequence (Q9H7Z6 125-458): T1 sequence (Q9H7Z6 125-458)
Description: MALDI-TOF MS enzymatic assay of MOF-catalyzed acetylation of histone peptides. As to conditions: 100 µM peptide, 300 µM AcCoA, pH 8.0, 37 °C; for acetylation (conversion to acetylated peptide) by MOF: after 3 h, 2 µM MOF, 50 mM Hepes, 0.1 mM EDTA, 1 mM DTT, MALDI-TOF MS. In kind it is biochemical. As to the method: MALDI-TOF MS enzymatic assays were carried out to investigate KAT-catalyzed acetylation of synthetic histone peptides. The enzymatic activity of the recombinantly expressed human KATs was measured at different time points (2 µM KAT enzyme, 100 µM histone peptide, 300 µM AcCoA, buffer: 50 mM Hepes, 0.1 mM EDTA, 1 mM DTT, pH = 8.0, 37 °C, hereafter used as standard conditions) (Fig. 3b,c). […] It is noteworthy that diacetylation of histone peptides was not detected under our assay conditions, due to preacetylation of the secondary site on H3. […] As further control, H4 and H3 peptides containing stereochemically inverted D-lysine were synthesized.
The KAT enzymatic activity towards histone peptides was measured at different time points under standard conditions (2 µM KAT enzyme, 100 µM peptide, 300 µM AcCoA) in the reaction buffer (50 mM HEPES, 0.1 mM EDTA, 1 mM DTT, pH = 8.0). The reactions were carried out in a final volume of 50 µL and shaken up in a Thermomixer C at 750 rpm, at 37 °C. The reactions were quenched by the addition of TFA 10% in MilliQ water at different time points. All reactions were aliquoted and mixed 1:2 with a solution of α-Cyano-4-hydroxycinnamic acid (CHCCA) in 1:1 MQ and ACN (0.1% TFA) and loaded onto an MTP 384 polished steel target to be analyzed by a UltrafleXtreme-II tandem mass spectrometer (Bruker, Billerica, MA, USA).

In general, Km refers to the concentration of substrate that gives half-maximal velocity.

Turning to “GGA h2K16 RHRKVLRDNIQ [H4h2K16, 15-mer histone H4 peptide with h2K at position 16]”, in assay [1] (MOF), the “Km lower than that of H4hK16” value is on record as “fourfold lower” and the “kcat^app/Km^app” value worked out at 12 M⁻¹ s⁻¹. Further, in assay [1], the “kcat^app” value stood at 0.001 ± 0.00017 s⁻¹ and the Km was 82.2 ± 15 µM. For the same sequence, the “acetylation (conversion to acetylated peptide) by MOF” value in assay [2] is on record as 90%.
For the sequence “GGA hK 16 RHRKVLRDNIQ [H4hK16, 15-mer histone H4 peptide with hLys at position 16]”, in assay [1], the “kcat^app” value is 0.0045 ± 0.0017 s⁻¹ and the Km is 344 ± 99 µM. Besides, the “kcat^app/Km^app” value in assay [1] (MOF) was found to be 13 M⁻¹ s⁻¹. In assay [2], the “acetylation (conversion to acetylated peptide) by MOF” value came out at 95%.
Take “GGA K16 RHRKVLRDNIQ [H4K16, reference compound]”: in assay [1], the “kcat^app” value came to 0.385 ± 0.0167 s⁻¹ and the Km stood at 593 ± 86 µM. In addition, the “kcat^app/Km^app” value in assay [1] (MOF) stood at 648 M⁻¹ s⁻¹. The “time to full acetylation by MOF” value in assay [2] (standard conditions: 2 µM MOF) was found to be 30 min.
